Results from US20240325544A1, “CATIONIC LIPID FOR COVALENT MODIFICATION OF PEPTIDES” (PharmalN Corporation, priority 2023, published 2024).
Like-named read-outs stand apart in the source and are kept apart here. Marks after values point to notes of the source that are not given here. Bridge positions count the residues as written; N and C are the ends. Square brackets hold non-standard residues; d marks the D form. Peptide text beside a SMILES is read from it. * marks the point of attachment. C18 diacid = O=C(O)CCCCCCCCCCCCCCCCC(=O)*; Stearoyl = CCCCCCCCCCCCCCCCCC(=O)*; Palmitoyl = CCCCCCCCCCCCCCCC(=O)*; Dab = NCC[C@H](N)C(=O)O; Dap = NC[C@H](N)C(=O)O; AEEA = NCCOCCOCC(=O)O

Key:
[1] = Clinically observable adverse effects of cationic alkyl moieties after subcutaneous bolus in rats (Table 1); format: in vivo, rat; conditions: male, Sprague-Dawley, rat, in vivo, sc, tested at 3.0, 5.0 or 10 μmol/kg, lethargy is considered maximum tolerated bolus dose, read-out: Lethargy* in n = 3
Method: (§1) Drug administration and observation: Each rat received a subcutaneous injection of a cationic alkyl modifier (SEQ ID NO: 1-22; listed in Table 1 below) in a buffer of sterile water adjusted to a pH between 4.5-5, with an initial bolus dose of 5.0 μmol/kg and an injection volume of 1.0 mL/kg. The bolus dose level was adjusted based on observations, and animals were monitored closely for lethargy, ataxia, swelling, or discoloration during the first 4 hours post-injection and hourly thereafter. As used herein, “ataxia” means a clinical sign observed as poor muscle control that causes clumsy voluntary movements. It may cause difficulty with mobility, coordination, and eye movements. As used herein, “lethargy” means a clinical sign observed as inability or unwillingness to resume normal activity characterized by exploring and alertness. Lethargic rats are easily observed by displaying little to no activity and/or unwillingness to explore around, half closed eyes, and hunched posture. As used herein, “swelling” means a clinical sign observed as the enlargement or engorgement of body parts with blood or fluid and is associated with visible redness (discoloration). If no swelling occurred, dose level was increased to 10 μmol/kg; if swelling was present, bolus dose level was decreased to 3.0 μmol/kg. A wash-out period of 1 week was allowed between bolus doses, and animals were humanely euthanized through CO2 asphyxiation after final observation.

Sprague Dawley rats = assay: as above; format: in vivo, rat; conditions: tested at 3.0, 5.0 or 10 μmol/kg; for Ataxia** in n = 3: ataxia is bolus dose limiting toxicity; for Swelling and/or Discoloration in n = 3: dose at which sign was seen
Method: as §1

cGMP = assay: Plasma cGMP after SC bolus of natriuretic peptides in CD-1 mice (pharmacodynamics, Table 3); format: in vivo; conditions: SC bolus 1.0 mg/kg (≤0.45 μmol/kg), baseline 10 +/−8 pmol/ml, n = 3-5
Method: (§2) The test articles were formulated or dissolved in sterile water for injection on the same day of administration. […] Blood samples were collected via retro-orbital bleed at 2- and 6-hours post-injection, with two bleedings per animal at two different timepoints. The samples were collected in K2EDTA tubes, processed by centrifugation (2000×g; 15 m 4 eC within 30 minutes after collection), and the resulting plasma samples were stored at −80° C. Biochemical analysis: The plasma concentration of the respective natriuretic peptide was analyzed using commercially available ELISA kits from Phoenix Pharmaceuticals (Burlingame, CA): ANP ELISA (cat #EKE-005-06), BNP ELISA (cat #EKE-011-03), and CNP ELISA (cat #EKE-012-03). […] Plasma cGMP was analyzed using a commercially available kit from Abcam (ab133052, Waltham, MA).

[2] = Plasma concentration of respective natriuretic peptide by ELISA after SC bolus in CD-1 mice (pharmacokinetics, Table 3); conditions: male, CD-1, mouse, in vivo
Method: as §2

Row | Compound | MTD [1] | Ataxia** in n = 3 (Sprague Dawley rats) | Swelling and/or Discoloration in n = 3 (Sprague Dawley rats) | Plasma concentration of cGMP, 2 hr (cGMP) | Plasma concentration of cGMP, 6 hr (cGMP) | level at 2 h ([2]; sc, 1 mg/kg) | level at 6 h ([2]; sc, 1 mg/kg) | level at 2 h ([2]; mice, SC bolus 1.0 mg/kg (≤0.45 μmol/kg), 2 hr, ELISA, n = 3-5, read-out: Plasma concentration of respective Natriuretic Peptide, ANP, BNP, or CNP, 2 hr) | level at 6 h ([2]; mice, SC bolus 1.0 mg/kg (≤0.45 μmol/kg), 6 hr, ELISA, n = 3-5, read-out: Plasma concentration of respective Natriuretic Peptide, ANP, BNP, or CNP, 6 hr)
1 | CCCCCCCCCCCCCCCC(=O)NCCOCCOCC(=O)NCCOCCOCC(=O)NCCOCCOCC(=O)N[C@H](CCCCN)C(=O)N[C@@H](CCCCN)C(=O)O [SEQ ID NO: 1, CH3(CH2)14(C═O)-Aeea-Aeea-Aeea-kK] | ≥ 3 µmol/kg | ≥3 µmol/kg | ≥3 µmol/kg | – | – | – | – | – | –
2 | CCCCCCCCCCCCCCCCCC(=O)N[C@@H](CCCCN)C(=O)N[C@@H](CCCCN)C(=O)N[C@@H](CCCCN)C(=O)N[C@@H](CCCCN)C(=O)NCC(=O)NCC(=O)NCC(=O)O [SEQ ID NO: 2, CH3(CH2)16(C═O)-KKKKGGG] (Stearoyl-KKKKGGG-OH; C-terminus assumed) | ≥ 3 µmol/kg | – | ≥3 µmol/kg | – | – | – | – | – | –
3 | CCCCCCCCCCCCCCCC(=O)NCCOCCOCC(=O)NCCOCCOCC(=O)N[C@@H](CCCCN)C(=O)N[C@@H](CCCCN)C(=O)N[C@@H](CCCCN)C(=O)N[C@@H](CCCCN)C(=O)O [SEQ ID NO: 4, CH3(CH2)14(C═O)-Aeea-Aeea-KKKK] ({Palmitoyl-AEEA-AEEA}-KKKK-OH; C-terminus assumed) | ≥ 3 µmol/kg | ≥3 µmol/kg | ≥3 µmol/kg | – | – | – | – | – | –
4 | CCCCCCCCCCCCCCCC(=O)NCCOCCOCC(=O)NCCOCCOCC(=O)N[C@@H](CCCCN)C(=O)N[C@@H](CCCCN)C(=O)O [SEQ ID NO: 5, CH3(CH2)14(C═O)-Aeea-Aeea-KK] | ≥ 5 µmol/kg | ≥5 µmol/kg | – | – | – | – | – | – | –
5 | CCCCCCCCCCCCCCCC(=O)NCCOCCOCC(=O)NCCOCCOCC(=O)NCCOCCOCC(=O)N[C@@H](CCN)C(=O)N[C@@H](CCN)C(=O)N[C@@H](CCN)C(=O)N[C@@H](CCN)C(=O)O [SEQ ID NO: 8, CH3(CH2)14(C═O)-Aeea-Aeea-Aeea-Dab-Dab-Dab-Dab] ({Palmitoyl-AEEA-AEEA-AEEA}-[Dab][Dab][Dab][Dab]-OH; C-terminus assumed) | ≥ 3 µmol/kg | >5 µmol/kg | ≥3 µmol/kg | – | – | – | – | – | –
6 | CCCCCCCCCCCCCCCC(=O)NCCOCCOCC(=O)NCCOCCOCC(=O)NCCOCCOCC(=O)N[C@@H](CCN)C(=O)N[C@@H](CCN)C(=O)N[C@@H](CCN)C(=O)O [SEQ ID NO: 9, CH3(CH2)14(C═O)-Aeea-Aeea-Aeea-Dab-Dab-Dab] ({Palmitoyl-AEEA-AEEA-AEEA}-[Dab]-[Dab]-[Dab]-OH; C-terminus assumed) | > 5 µmol/kg | >5 µmol/kg | ≥3 µmol/kg | – | – | – | – | – | –
7 | CC[C@H](C)[C@@H]1NC(=O)[C@H](CCCNC(=N)N)NC(=O)[C@H](CC(=O)O)NC(=O)[C@H](CC(C)C)NC(=O)[C@H](CCCCN)NC(=O)[C@H](CC(C)C)NC(=O)CNC(=O)[C@H](Cc2ccccc2)NC(=O)[C@@H](NC(=O)CNC(=O)[C@H](CCCCN)NC(=O)[C@H](CO)NC(=O)[C@H](CC(C)C)NC(=O)CNC(=O)[C@H](CN)NC(=O)[C@H](CN)NC(=O)COCCOCCNC(=O)COCCOCCNC(=O)COCCOCCNC(=O)CCCCCCCCCCCCCCCCC(=O)O)CSSC[C@@H](C(=O)O)NC(=O)CNC(=O)[C@H](CC(C)C)NC(=O)CNC(=O)[C@H](CO)NC(=O)[C@H](CCC(N)=O)NC(=O)[C@H](CO)NC(=O)CNC1=O [SEQ ID NO: 39] ({C18 diacid-AEEA-AEEA-AEEA}-[Dap][Dap]GLSKGCFGLKLDRIGSQSGLGC-OH; disulfide 8-24; C-terminus assumed) | – | – | – | 13.29 pmol/mL | 43.60 pmol/mL | 50.7 ng/mL | 23.7 ng/mL | – | –
8 | CCCCCCCCCCCCCCCC(=O)NCCOCCOCC(=O)NCCOCCOCC(=O)NCCOCCOCC(=O)N[C@@H](CCN)C(=O)NCC(=O)N[C@@H](CC(C)C)C(=O)N[C@@H](CO)C(=O)N[C@@H](CCCCN)C(=O)NCC(=O)N[C@H]1CSSC[C@@H](C(=O)O)NC(=O)CNC(=O)[C@H](CC(C)C)NC(=O)CNC(=O)[C@H](CO)NC(=O)[C@H](CCC(N)=O)NC(=O)[C@H](CO)NC(=O)CNC(=O)[C@H]([C@@H](C)CC)NC(=O)[C@H](CCCNC(=N)N)NC(=O)[C@H](CC(=O)O)NC(=O)[C@H](CC(C)C)NC(=O)[C@H](CCCCN)NC(=O)[C@H](CC(C)C)NC(=O)CNC(=O)[C@H](Cc2ccccc2)NC1=O [SEQ ID NO: 41] ({Palmitoyl-AEEA-AEEA-AEEA}-[Dab]GLSKGCFGLKLDRIGSQSGLGC-OH; disulfide 7-23; C-terminus assumed) | – | – | – | 124.77*** pmol/mL | 67.78**** pmol/mL | 26.7 ng/mL | 30.1 ng/mL | – | –
9 | CCCCCCCCCCCCCCCC(=O)NCCOCCOCC(=O)NCCOCCOCC(=O)NCCOCCOCC(=O)N[C@@H](CN)C(=O)NCC(=O)N[C@@H](CC(C)C)C(=O)N[C@@H](CO)C(=O)N[C@@H](CCCCN)C(=O)NCC(=O)N[C@H]1CSSC[C@@H](C(=O)O)NC(=O)CNC(=O)[C@H](CC(C)C)NC(=O)CNC(=O)[C@H](CO)NC(=O)[C@H](CCC(N)=O)NC(=O)[C@H](CO)NC(=O)CNC(=O)[C@H]([C@@H](C)CC)NC(=O)[C@H](CCCNC(=N)N)NC(=O)[C@H](CC(=O)O)NC(=O)[C@H](CC(C)C)NC(=O)[C@H](CCCCN)NC(=O)[C@H](CC(C)C)NC(=O)CNC(=O)[C@H](Cc2ccccc2)NC1=O [SEQ ID NO: 42] ({Palmitoyl-AEEA-AEEA-AEEA}-[Dap]GLSKGCFGLKLDRIGSQSGLGC-OH; disulfide 7-23; C-terminus assumed) | – | – | – | 110.21*** pmol/mL | 46.90** pmol/mL | 26.1 ng/mL | 25 ng/mL | – | –
10 | CCCCCCCCCCCCCCCC(=O)NCCOCCOCC(=O)NCCOCCOCC(=O)NCCOCCOCC(=O)N[C@@H](CN)C(=O)N[C@@H](CN)C(=O)N[C@@H](CN)C(=O)NCC(=O)N[C@@H](CC(C)C)C(=O)N[C@@H](CO)C(=O)N[C@@H](CCCCN)C(=O)NCC(=O)N[C@H]1CSSC[C@@H](C(=O)O)NC(=O)CNC(=O)[C@H](CC(C)C)NC(=O)CNC(=O)[C@H](CO)NC(=O)[C@H](CCC(N)=O)NC(=O)[C@H](CO)NC(=O)CNC(=O)[C@H]([C@@H](C)CC)NC(=O)[C@H](CCCNC(=N)N)NC(=O)[C@H](CC(=O)O)NC(=O)[C@H](CC(C)C)NC(=O)[C@H](CCCCN)NC(=O)[C@H](CC(C)C)NC(=O)CNC(=O)[C@H](Cc2ccccc2)NC1=O [SEQ ID NO: 43] ({Palmitoyl-AEEA-AEEA-AEEA}-[Dap][Dap][Dap]GLSKGCFGLKLDRIGSQSGLGC-OH; disulfide 9-25; C-terminus assumed) | – | – | – | 114.85**** pmol/mL | 93.39**** pmol/mL | 29.2 ng/mL | 16.8 ng/mL | – | –
11 | CC[C@H](C)[C@@H]1NC(=O)[C@H](CCCNC(=N)N)NC(=O)[C@H](CC(=O)O)NC(=O)[C@H](CCSC)NC(=O)[C@H](CCCCN)NC(=O)[C@H](CCCNC(=N)N)NC(=O)CNC(=O)[C@H](Cc2ccccc2)NC(=O)[C@@H](NC(=O)CNC(=O)[C@H](CO)NC(=O)CNC(=O)[C@H](CCC(N)=O)NC(=O)[C@@H](NC(=O)[C@H](CCSC)NC(=O)[C@H](CCCCN)NC(=O)[C@@H]2CCCN2C(=O)[C@@H](N)CO)C(C)C)CSSC[C@@H](C(=O)N[C@@H](CCCCN)C(=O)N[C@H](C(=O)N[C@@H](CC(C)C)C(=O)N[C@@H](CCCNC(=N)N)C(=O)N[C@@H](CCCNC(=N)N)C(=O)N[C@@H](Cc2c[nH]cn2)C(=O)O)C(C)C)NC(=O)CNC(=O)[C@H](CC(C)C)NC(=O)CNC(=O)[C@H](CO)NC(=O)[C@H](CO)NC(=O)[C@H](CO)NC(=O)[C@H](CO)NC1=O [SEQ ID NO: 48, reference compound] | – | – | – | 10.57 pmol/mL | 8.48 pmol/mL | – | – | 23.3 ng/mL | 30.6 ng/mL
